Measurements from PubChem BioAssay AID2060503 (Molecular Pharmacology Branch, DTP, NCI, 2025).

What follows are compounds tested on 817829-284-R-J1-PDC complex spheroids, viability (assay: Anticancer human tumor 817829-284-R-J1-PDC patient-derived colon adenocarcinoma cell line growth inhibition [GQUAD]). Details: curve of first compound; second compound 10 µM.
Outline: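 Multi-cell-type spheroids of tumor cells with HUVEC and mesenchymal stem cells, treated with drug combinations. Concentrations descend in half-log steps from near clinical Cmax, or from 10 microM where Cmax is unknown; viability read-out.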
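Also: spheroids exposed to agents for 7 days before readout.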
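For viability, T/C in this document: percent viability relative to DMSO vehicle control taken as 100%.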

Q: With C=CC(=O)N1CCN(c2nc(=O)n(-c3c(C)ccnc3C(C)C)c3nc(-c4c(O)cccc4F)c(F)cc23)C(C)C1 (configuration not stated) + Cc1cnc(CNC(=O)c2c(=O)c3ccc(N4CCCN(C)CC4)nc3n3c2sc2ccccc23)cn1 as the compound, how does the IC50 read?
A: Its IC50 is < 31.6 nM.

Q: CC(C)n1c(=O)n(C)c2cnc3cc(F)c(-c4ccc(OCCCN5CCCCC5)nc4)cc3c21 + Cc1cnc(CNC(=O)c2c(=O)c3ccc(N4CCCN(C)CC4)nc3n3c2sc2ccccc23)cn1 was tested. Which IC50 did it give?
A: The IC50 was < 31.6 nM.

Q: For COc1ccc([C@@H](O)c2cc(-c3ncnc4cc(N5CCOCC5)ccc34)c(F)cc2Cl)nn1 + Cc1cnc(CNC(=O)c2c(=O)c3ccc(N4CCCN(C)CC4)nc3n3c2sc2ccccc23)cn1, which IC50 is on record?
A: The IC50 was < 31.6 nM.

Q: Which IC50 does the source give for Nc1ccn(C2OC(CO)C(O)C2(F)F)c(=O)n1 (configuration not stated) + Cc1cnc(CNC(=O)c2c(=O)c3ccc(N4CCCN(C)CC4)nc3n3c2sc2ccccc23)cn1 here?
A: Its IC50 is < 31.6 nM.

Q: Which IC50 does the source give for O=C(c1cc(Cc2n[nH]c(=O)c3ccccc23)ccc1F)N1CCN(C(=O)C2CC2)CC1 + Cc1cnc(CNC(=O)c2c(=O)c3ccc(N4CCCN(C)CC4)nc3n3c2sc2ccccc23)cn1 here?
A: Its IC50 is < 31.6 nM.

Q: O=c1[nH]cc(F)c(=O)[nH]1 + Cc1cnc(CNC(=O)c2c(=O)c3ccc(N4CCCN(C)CC4)nc3n3c2sc2ccccc23)cn1 was tested. Which IC50 did it give?
A: The IC50 was < 31.6 nM.

Same assay, conditions: second compound 0.0316 µM; first compound 0.0316 µM; stronger effect = lower value

Q: With COc1ncnc(C2CC2)c1-c1ncc2cnn(Cc3ccc(-c4nc(C(F)(F)F)cn4C(C)C)cc3)c2n1 + Cc1[nH]c2ccc(F)cc2c1-c1nc2c3cccnc3c3ncccc3c2[nH]1 as the compound, how does the viability, T/C read?
A: Its viability, T/C is 99.1%.

Q: C=CC(=O)N1CCN(c2nc(=O)n(-c3c(C)ccnc3C(C)C)c3nc(-c4c(O)cccc4F)c(F)cc23)C(C)C1 (configuration not stated) + Cc1cnc(CNC(=O)c2c(=O)c3ccc(N4CCCN(C)CC4)nc3n3c2sc2ccccc23)cn1 was tested. Which viability, T/C did it give?
A: Its viability, T/C is 87.4%.

Q: How did the viability, T/C turn out when CC(C)n1c(=O)n(C)c2cnc3cc(F)c(-c4ccc(OCCCN5CCCCC5)nc4)cc3c21 + Cc1cnc(CNC(=O)c2c(=O)c3ccc(N4CCCN(C)CC4)nc3n3c2sc2ccccc23)cn1 was run?
A: Its viability, T/C is 37.7%.

Q: COc1ccc([C@@H](O)c2cc(-c3ncnc4cc(N5CCOCC5)ccc34)c(F)cc2Cl)nn1 + Cc1cnc(CNC(=O)c2c(=O)c3ccc(N4CCCN(C)CC4)nc3n3c2sc2ccccc23)cn1 was tested. Which viability, T/C did it give?
A: Its viability, T/C is 81.7%.

Q: How did the viability, T/C turn out when Nc1ccn(C2OC(CO)C(O)C2(F)F)c(=O)n1 (configuration not stated) + Cc1cnc(CNC(=O)c2c(=O)c3ccc(N4CCCN(C)CC4)nc3n3c2sc2ccccc23)cn1 was run?
A: The viability, T/C was 17.2%.

Q: O=C(c1cc(Cc2n[nH]c(=O)c3ccccc23)ccc1F)N1CCN(C(=O)C2CC2)CC1 + Cc1cnc(CNC(=O)c2c(=O)c3ccc(N4CCCN(C)CC4)nc3n3c2sc2ccccc23)cn1 was tested. Which viability, T/C did it give?
A: Its viability, T/C is 78.9%.

Q: O=c1[nH]cc(F)c(=O)[nH]1 + Cc1cnc(CNC(=O)c2c(=O)c3ccc(N4CCCN(C)CC4)nc3n3c2sc2ccccc23)cn1 was tested. Which viability, T/C did it give?
A: Its viability, T/C is 91.4%.

Same assay, conditions: second compound 0.0316 µM; first compound 0.1 µM; stronger effect = lower value

Q: With COc1ncnc(C2CC2)c1-c1ncc2cnn(Cc3ccc(-c4nc(C(F)(F)F)cn4C(C)C)cc3)c2n1 + Cc1[nH]c2ccc(F)cc2c1-c1nc2c3cccnc3c3ncccc3c2[nH]1 as the compound, how does the viability, T/C read?
A: Its viability, T/C is 113%.

Q: C=CC(=O)N1CCN(c2nc(=O)n(-c3c(C)ccnc3C(C)C)c3nc(-c4c(O)cccc4F)c(F)cc23)C(C)C1 (configuration not stated) + Cc1cnc(CNC(=O)c2c(=O)c3ccc(N4CCCN(C)CC4)nc3n3c2sc2ccccc23)cn1 was tested. Which viability, T/C did it give?
A: The viability, T/C was 59.1%.

Q: Which viability, T/C does the source give for CC(C)n1c(=O)n(C)c2cnc3cc(F)c(-c4ccc(OCCCN5CCCCC5)nc4)cc3c21 + Cc1cnc(CNC(=O)c2c(=O)c3ccc(N4CCCN(C)CC4)nc3n3c2sc2ccccc23)cn1 here?
A: The viability, T/C was 32.1%.

Q: Which viability, T/C does the source give for COc1ccc([C@@H](O)c2cc(-c3ncnc4cc(N5CCOCC5)ccc34)c(F)cc2Cl)nn1 + Cc1cnc(CNC(=O)c2c(=O)c3ccc(N4CCCN(C)CC4)nc3n3c2sc2ccccc23)cn1 here?
A: The viability, T/C was 75.5%.

Q: How did the viability, T/C turn out when Nc1ccn(C2OC(CO)C(O)C2(F)F)c(=O)n1 (configuration not stated) + Cc1cnc(CNC(=O)c2c(=O)c3ccc(N4CCCN(C)CC4)nc3n3c2sc2ccccc23)cn1 was run?
A: Its viability, T/C is 7.44%.

Q: Which viability, T/C does the source give for O=C(c1cc(Cc2n[nH]c(=O)c3ccccc23)ccc1F)N1CCN(C(=O)C2CC2)CC1 + Cc1cnc(CNC(=O)c2c(=O)c3ccc(N4CCCN(C)CC4)nc3n3c2sc2ccccc23)cn1 here?
A: The viability, T/C was 65.2%.

Q: How did the viability, T/C turn out when O=c1[nH]cc(F)c(=O)[nH]1 + Cc1cnc(CNC(=O)c2c(=O)c3ccc(N4CCCN(C)CC4)nc3n3c2sc2ccccc23)cn1 was run?
A: The viability, T/C was 75.3%.

Same assay, conditions: second compound 0.0316 µM; first compound 0.316 µM; stronger effect = lower value

Q: Which viability, T/C does the source give for COc1ncnc(C2CC2)c1-c1ncc2cnn(Cc3ccc(-c4nc(C(F)(F)F)cn4C(C)C)cc3)c2n1 + Cc1[nH]c2ccc(F)cc2c1-c1nc2c3cccnc3c3ncccc3c2[nH]1 here?
A: Its viability, T/C is 101%.

Q: How did the viability, T/C turn out when C=CC(=O)N1CCN(c2nc(=O)n(-c3c(C)ccnc3C(C)C)c3nc(-c4c(O)cccc4F)c(F)cc23)C(C)C1 (configuration not stated) + Cc1cnc(CNC(=O)c2c(=O)c3ccc(N4CCCN(C)CC4)nc3n3c2sc2ccccc23)cn1 was run?
A: Its viability, T/C is 90.8%.

Q: How did the viability, T/C turn out when CC(C)n1c(=O)n(C)c2cnc3cc(F)c(-c4ccc(OCCCN5CCCCC5)nc4)cc3c21 + Cc1cnc(CNC(=O)c2c(=O)c3ccc(N4CCCN(C)CC4)nc3n3c2sc2ccccc23)cn1 was run?
A: The viability, T/C was 36.5%.

Q: How did the viability, T/C turn out when COc1ccc([C@@H](O)c2cc(-c3ncnc4cc(N5CCOCC5)ccc34)c(F)cc2Cl)nn1 + Cc1cnc(CNC(=O)c2c(=O)c3ccc(N4CCCN(C)CC4)nc3n3c2sc2ccccc23)cn1 was run?
A: The viability, T/C was 41%.

Q: Which viability, T/C does the source give for Nc1ccn(C2OC(CO)C(O)C2(F)F)c(=O)n1 (configuration not stated) + Cc1cnc(CNC(=O)c2c(=O)c3ccc(N4CCCN(C)CC4)nc3n3c2sc2ccccc23)cn1 here?
A: The viability, T/C was 7.25%.

Q: O=C(c1cc(Cc2n[nH]c(=O)c3ccccc23)ccc1F)N1CCN(C(=O)C2CC2)CC1 + Cc1cnc(CNC(=O)c2c(=O)c3ccc(N4CCCN(C)CC4)nc3n3c2sc2ccccc23)cn1 was tested. Which viability, T/C did it give?
A: Its viability, T/C is 58.5%.

Q: O=c1[nH]cc(F)c(=O)[nH]1 + Cc1cnc(CNC(=O)c2c(=O)c3ccc(N4CCCN(C)CC4)nc3n3c2sc2ccccc23)cn1 was tested. Which viability, T/C did it give?
A: Its viability, T/C is 77.6%.

Same assay, conditions: second compound 0.0316 µM; first compound 1 µM; stronger effect = lower value

Q: How did the viability, T/C turn out when COc1ncnc(C2CC2)c1-c1ncc2cnn(Cc3ccc(-c4nc(C(F)(F)F)cn4C(C)C)cc3)c2n1 + Cc1[nH]c2ccc(F)cc2c1-c1nc2c3cccnc3c3ncccc3c2[nH]1 was run?
A: The viability, T/C was 97.9%.

Q: With C=CC(=O)N1CCN(c2nc(=O)n(-c3c(C)ccnc3C(C)C)c3nc(-c4c(O)cccc4F)c(F)cc23)C(C)C1 (configuration not stated) + Cc1cnc(CNC(=O)c2c(=O)c3ccc(N4CCCN(C)CC4)nc3n3c2sc2ccccc23)cn1 as the compound, how does the viability, T/C read?
A: Its viability, T/C is 55.7%.

Q: Which viability, T/C does the source give for CC(C)n1c(=O)n(C)c2cnc3cc(F)c(-c4ccc(OCCCN5CCCCC5)nc4)cc3c21 + Cc1cnc(CNC(=O)c2c(=O)c3ccc(N4CCCN(C)CC4)nc3n3c2sc2ccccc23)cn1 here?
A: The viability, T/C was 25.1%.

Q: How did the viability, T/C turn out when COc1ccc([C@@H](O)c2cc(-c3ncnc4cc(N5CCOCC5)ccc34)c(F)cc2Cl)nn1 + Cc1cnc(CNC(=O)c2c(=O)c3ccc(N4CCCN(C)CC4)nc3n3c2sc2ccccc23)cn1 was run?
A: The viability, T/C was 31.2%.

Q: Nc1ccn(C2OC(CO)C(O)C2(F)F)c(=O)n1 (configuration not stated) + Cc1cnc(CNC(=O)c2c(=O)c3ccc(N4CCCN(C)CC4)nc3n3c2sc2ccccc23)cn1 was tested. Which viability, T/C did it give?
A: The viability, T/C was 5.51%.

Q: How did the viability, T/C turn out when O=C(c1cc(Cc2n[nH]c(=O)c3ccccc23)ccc1F)N1CCN(C(=O)C2CC2)CC1 + Cc1cnc(CNC(=O)c2c(=O)c3ccc(N4CCCN(C)CC4)nc3n3c2sc2ccccc23)cn1 was run?
A: The viability, T/C was 51.6%.

Q: Which viability, T/C does the source give for O=c1[nH]cc(F)c(=O)[nH]1 + Cc1cnc(CNC(=O)c2c(=O)c3ccc(N4CCCN(C)CC4)nc3n3c2sc2ccccc23)cn1 here?
A: The viability, T/C was 43%.

Same assay, conditions: second compound 0.0316 µM; first compound 3.16 µM; stronger effect = lower value

Q: With COc1ncnc(C2CC2)c1-c1ncc2cnn(Cc3ccc(-c4nc(C(F)(F)F)cn4C(C)C)cc3)c2n1 + Cc1[nH]c2ccc(F)cc2c1-c1nc2c3cccnc3c3ncccc3c2[nH]1 as the compound, how does the viability, T/C read?
A: Its viability, T/C is 113%.

Q: For C=CC(=O)N1CCN(c2nc(=O)n(-c3c(C)ccnc3C(C)C)c3nc(-c4c(O)cccc4F)c(F)cc23)C(C)C1 (configuration not stated) + Cc1cnc(CNC(=O)c2c(=O)c3ccc(N4CCCN(C)CC4)nc3n3c2sc2ccccc23)cn1, which viability, T/C is on record?
A: The viability, T/C was 76.5%.

Q: CC(C)n1c(=O)n(C)c2cnc3cc(F)c(-c4ccc(OCCCN5CCCCC5)nc4)cc3c21 + Cc1cnc(CNC(=O)c2c(=O)c3ccc(N4CCCN(C)CC4)nc3n3c2sc2ccccc23)cn1 was tested. Which viability, T/C did it give?
A: Its viability, T/C is 26.6%.
